From patent publication US20240139129A1, “NOVEL METHOD AND AGENT FOR TREATING, DIAGNOSING AND DETECTING DIABETES AND COMPLICATIONS” (Biozipcode, Inc., priority 2021, published 2024) come the findings set out here.

The test system of the assay is diabetic patients (type 1 and type 2 diabetes mellitus). The experiment in a line: Research Plan 2: therapy of diabetes mellitus targeting bone marrow-derived abnormal hematopoietic stem cell in patients. It counts as in vivo, human. Particulars: type 1 and type 2 diabetic patients, 12 weeks therapy.

As to “insulin: insulin therapy alone for three months (control group) in the human research plan”, the “(A) effect of eliminating abnormal hematopoietic stem cells” value is “not eliminated”, the “(B) effect of healing diabetes mellitus” value is “not observed” and the “(C) therapeutic effect on a complication” value is listed as “observed to some extent”.
